What was measured:
Wistar rats = test: Carrageenan induced paw edema model; type: in vivo, rat; settings: single p.o. dose
Procedure: Anti-inflammatory activity of Withania somnifera extracts was assessed by carrageenan induced paw edema model in rats. Wistar rats were divided into seven groups (n=5). Following treatment was given to the rats as single dose; • Group 1: Control (Received only vehicle, 1% Tween 80 v/v p.o.) • Group II: Powdered Withania somnifera plant parts minimum 0.4% withanolides—Dosage 1750 mg/kg p.o. • Group III: Withania somnifera plant extract standardized minimum 2.5% withanolides (WG2.5)—Dosage 200 mg/kg p.o. • Group IV: Withania somnifera plant extract standardized minimum 5% withanolides (WG5)—Dosage 100 mg/kg p.o. • Group V: Withania somnifera plant extract standardized minimum 10% Withanolide Glycoside (WG10)—Dosage 50 mg/kg p.o. • Group VI: Sample 2 standardized with minimum 35±3% Withanolide Glycoside (WG 35)—Dosage 14 mg/kg p.o). • Group VII: Indomethacin (10 mg/kg p.o.).
After 30 minutes of extracts 0.1 mL of carrageenan (1% in normal saline) was injected into the right hind paw of each rat. The paw volume was measured plethysmographically at 0, 0.5, 1, 2, 3, 4 and 5th hour after challenge. The percentage inhibition of edema was calculated for each group with respect to the vehicle received control group of animals.

[1] = Bioavailability of Withaferin A and Withanoside IV in animals; type: in vivo; settings: rat plasma, p.o.; standards 15 mg/kg, WG35 500 mg/kg
Procedure: Albino rats weighing 200-220 gm of both sexes were used for the study. The rats were kept individually in polypropylene cages and maintained in a well-ventilated room under normal and uniform conditions like 12 hours light and dark cycle and at 26±2° C. Water and feed were given ad-libitum. After the acclimatization period, the animals were fasted overnight before administration of test products.
Immediately after drug administration, 0.5 ml of blood was withdrawn at 0, 0.5, 1, 1.5, 2, 4, 6, 8 and 12 hours. Plasma samples were separated and Withaferin A and Withanoside IV were detected.

GABA receptors = test: Expression of GABA receptors in rat glioblastoma (C6) cell line; type: cell-based; settings: C6 cells, positive control 1 μg/mL
[2] = rats, administered orally; cited from earlier work
Swiss albino mice = test: Pentobarbital induced sleep activity; type: in vivo; settings: 1 mg/kg
Procedure: Swiss albino mice weighing 25-30 gm were used for the study.
Thirty minutes later, pentobarbital 40 mg/kg body weight was administered to each mouse to induce sleep. The onset time of sleep was recorded for all the animals. After induction of sleep, mice were placed in the inverted position and when sedation was over, the time point when the mice returned to their normal posture was noted. The time interval between dosing and the start of sleep was recorded as latency time.

Swiss mice = test: Swimming endurance test; type: in vivo; settings: 8th day after 7 days once daily p.o.
Procedure: Extracts were given to the mice, once daily for a period of 7 days. On 8th day the mice were subjected to swimming stress by keeping them in propylene tank of dimension (37×37×30 cm), filled with water to a height of 25 cm. The […] were allowed to swim till complete exhaustion and the endpoint was taken when the animal started drowning. The mean swimming time for each group was calculated.

Albino Wistar rats = test: Anoxia stress tolerance (AST) test; type: in vivo, rat; settings: p.o. daily
Procedure: Albino Wistar rats of either sex weighing 150-220 g were selected and divided into seven groups of six each. Doses in each group were calculated thus, only 5 mg/Kg body weight withanolide were administered to each animal. The test was conducted as per the protocol disclosed in U.S. Pat. No. 9,987,323B2.
Animals were treated as shown above for the 3 weeks. At the end of 1st, 2nd and 3rd week i.e., on 7th, 14th and 21st day 1 h after the treatment stress was induced by placing each animal individually in the hermetic vessel of 1 L capacity to record anoxia tolerance time. The time duration of entry of the animal into the hermetic vessel and the appearance of the first convulsion was taken as time of anoxia.

COc1ccc2c(c1)c(CC(=O)O)c(C)n2C(=O)c1ccc(Cl)cc1 [Indomethacin]
Percentage inhibition of paw oedema (Wistar rats; 0.5 hr): 28% | Percentage inhibition of paw oedema (Wistar rats; 1 hr): 65% | Percentage inhibition of paw oedema (Wistar rats; 2 hr): 80% | Percentage inhibition of paw oedema (Wistar rats; 3 hr): 86%

CC1=C(CO)C(=O)O[C@@H]([C@@H](C)[C@H]2CC[C@H]3[C@@H]4C[C@H]5O[C@]56[C@@H](O)C=CC(=O)[C@]6(C)[C@H]4CC[C@]23C)C1 [Withaferin A]
Withaferin A AUC (0-12 h) [1]: 30.2 ng·h/mL | Withaferin A Cmax [1]: 28 ng/mL

CC1=C(CO)C(=O)O[C@@H]([C@@H](C)[C@H]2CC[C@H]3[C@@H]4CC=C5C[C@@H](O[C@@H]6O[C@H](CO[C@@H]7O[C@H](CO)[C@@H](O)[C@H](O)[C@H]7O)[C@@H](O)[C@H](O)[C@H]6O)C[C@H](O)[C@]5(C)[C@H]4CC[C@]23C)C1 [Withanoside IV]
Withaferin A AUC (0-12 h) [1]: 18 ng·h/mL | Withaferin A Cmax [1]: 13.5 ng/mL | Withanoside IV AUC (0-12 h) [1]: 14 ng·h/mL | Withanoside IV Cmax [1]: 10.2 ng/mL

NCCCC(=O)O [GABA, Gamma aminobutyric acid]
Gene expression of GABA receptors, fold increase (cell control = 1.00) (GABA receptors): 1.00

CC1=C(C)C(=O)O[C@@H]([C@](C)(O)[C@H]2CC[C@H]3[C@@H]4[C@@H]5O[C@@H]5[C@@]5(O)CC=CC(=O)[C@]5(C)[C@H]4CC[C@]23C)C1 [Withanolide A]
Absolute bioavailability of withanolide A in plasma [2]: less than 5%

CN1C(=O)CN=C(c2ccccc2)c2cc(Cl)ccc21 [Diazepam]
Duration of sleep (Swiss albino mice; pentobarbital 40 mg/kg): 99 | Onset time of sleep (latency time) (Swiss albino mice; pentobarbital 40 mg/kg): 27 min | Percentage decrease in onset time of sleep (Swiss albino mice; vs control): 47% | Percentage increase in duration of sleep (Swiss albino mice; vs control): 74% | Swimming time (Swiss mice): 58.67 min | Duration of anoxia stress tolerance (Albino Wistar rats; 1st week): 34.40 min | Duration of anoxia stress tolerance (Albino Wistar rats; 2nd week): 35.1 min | Duration of anoxia stress tolerance (Albino Wistar rats; 3rd week): 37.00 min

— patent US12527832B2, “Enriched Withania somnifera based dietary composition and a method thereof” (priority 2015, dated 2026)
